# According to the NIST ThermoML archive (doi:10.1016/j.jct.2013.01.005):
# ± gives the expanded uncertainty stated by the source.
# Test: activity coefficient (dimensionless); of the first substance listed, at infinite dilution; xn = mol fraction of the nth substance listed
# Conditions: 101 kPa, Liquid, Chromatography, x1 = 0
Compound,activity coefficient (308.15 K),activity coefficient (318.15 K),activity coefficient (328.15 K),activity coefficient (338.15 K),activity coefficient (348.15 K),activity coefficient (358.15 K)
CCCCCCCCC [nonane] + CCCCCC[N+]1(C)CCCCC1.O=S(=O)([N-]S(=O)(=O)C(F)(F)F)C(F)(F)F,16.9 ± 1.2,16.4 ± 1.1,15.7 ± 1.1,15.3 ± 1,14.6 ± 1,14.1 ± 1
CCCCCCCCC [nonane] + CCCCC[N+]1(C)CCCCC1.O=S(=O)([N-]S(=O)(=O)C(F)(F)F)C(F)(F)F,24.2 ± 1.7,22.4 ± 1.5,21.1 ± 1.4,19.9 ± 1.4,19 ± 1.3,18 ± 1.2
C=CCCCCCC [oct-1-ene] + CCCCCC[N+]1(C)CCCCC1.O=S(=O)([N-]S(=O)(=O)C(F)(F)F)C(F)(F)F,7.72 ± 0.53,7.6 ± 0.52,7.49 ± 0.51,7.37 ± 0.5,7.27 ± 0.5,7.2 ± 0.49
C=CCCCCCC [oct-1-ene] + CCCCC[N+]1(C)CCCCC1.O=S(=O)([N-]S(=O)(=O)C(F)(F)F)C(F)(F)F,9.9 ± 0.68,9.65 ± 0.66,9.28 ± 0.63,8.94 ± 0.61,8.77 ± 0.6,8.47 ± 0.58
CCCCCCCC [octane] + CCCCCC[N+]1(C)CCCCC1.O=S(=O)([N-]S(=O)(=O)C(F)(F)F)C(F)(F)F,12.9 ± 0.9,12.7 ± 0.9,12.1 ± 0.8,11.8 ± 0.8,11.3 ± 0.8,10.9 ± 0.7
CCCCCCCC [octane] + CCCCC[N+]1(C)CCCCC1.O=S(=O)([N-]S(=O)(=O)C(F)(F)F)C(F)(F)F,18.2 ± 1.2,16.9 ± 1.2,15.9 ± 1.1,15.1 ± 1,14.4 ± 1,13.7 ± 0.9
CCCCCO [pentan-1-ol] + CCCCCC[N+]1(C)CCCCC1.O=S(=O)([N-]S(=O)(=O)C(F)(F)F)C(F)(F)F,2.44 ± 0.17,2.23 ± 0.15,2.05 ± 0.14,1.92 ± 0.13,1.8 ± 0.12,1.71 ± 0.11
CCCCCO [pentan-1-ol] + CCCCC[N+]1(C)CCCCC1.O=S(=O)([N-]S(=O)(=O)C(F)(F)F)C(F)(F)F,2.5 ± 0.17,2.37 ± 0.16,2.2 ± 0.15,2.03 ± 0.14,1.94 ± 0.13,1.79 ± 0.12
CCCC(C)=O [pentan-2-one] + CCCCCC[N+]1(C)CCCCC1.O=S(=O)([N-]S(=O)(=O)C(F)(F)F)C(F)(F)F,0.573 ± 0.041,0.581 ± 0.041,0.596 ± 0.042,0.613 ± 0.043,0.632 ± 0.044,0.646 ± 0.044
CCCC(C)=O [pentan-2-one] + CCCCC[N+]1(C)CCCCC1.O=S(=O)([N-]S(=O)(=O)C(F)(F)F)C(F)(F)F,–,0.611 ± 0.043,0.629 ± 0.043,0.643 ± 0.044,0.666 ± 0.045,0.682 ± 0.046
CCCCC [pentane] + CCCCCC[N+]1(C)CCCCC1.O=S(=O)([N-]S(=O)(=O)C(F)(F)F)C(F)(F)F,5.95 ± 0.41,5.73 ± 0.39,5.42 ± 0.37,5.3 ± 0.36,5.2 ± 0.35,4.95 ± 0.34
CCCO [propan-1-ol] + CCCCCC[N+]1(C)CCCCC1.O=S(=O)([N-]S(=O)(=O)C(F)(F)F)C(F)(F)F,2.05 ± 0.14,1.83 ± 0.12,1.67 ± 0.11,1.53 ± 0.1,1.43 ± 0.09,1.33 ± 0.09
CCCO [propan-1-ol] + CCCCC[N+]1(C)CCCCC1.O=S(=O)([N-]S(=O)(=O)C(F)(F)F)C(F)(F)F,2.05 ± 0.14,1.82 ± 0.12,1.68 ± 0.11,1.55 ± 0.1,1.46 ± 0.1,1.36 ± 0.09
C1CCOC1 [tetrahydrofuran] + CCCCCC[N+]1(C)CCCCC1.O=S(=O)([N-]S(=O)(=O)C(F)(F)F)C(F)(F)F,0.563 ± 0.04,0.579 ± 0.041,0.594 ± 0.042,0.612 ± 0.043,0.627 ± 0.043,0.635 ± 0.044
C1CCOC1 [tetrahydrofuran] + CCCCC[N+]1(C)CCCCC1.O=S(=O)([N-]S(=O)(=O)C(F)(F)F)C(F)(F)F,0.617 ± 0.043,0.627 ± 0.043,0.641 ± 0.044,0.653 ± 0.045,0.667 ± 0.045,0.682 ± 0.046
c1ccsc1 [thiophene] + CCCCCC[N+]1(C)CCCCC1.O=S(=O)([N-]S(=O)(=O)C(F)(F)F)C(F)(F)F,0.614 ± 0.043,0.627 ± 0.043,0.643 ± 0.044,0.655 ± 0.045,0.664 ± 0.045,0.675 ± 0.046
c1ccsc1 [thiophene] + CCCCC[N+]1(C)CCCCC1.O=S(=O)([N-]S(=O)(=O)C(F)(F)F)C(F)(F)F,0.646 ± 0.044,0.665 ± 0.045,0.673 ± 0.046,0.69 ± 0.046,0.708 ± 0.047,0.722 ± 0.048
Cc1ccccc1 [toluene] + CCCCCC[N+]1(C)CCCCC1.O=S(=O)([N-]S(=O)(=O)C(F)(F)F)C(F)(F)F,0.864 ± 0.055,0.894 ± 0.057,0.909 ± 0.058,0.934 ± 0.059,0.957 ± 0.06,0.969 ± 0.061
Cc1ccccc1 [toluene] + CCCCC[N+]1(C)CCCCC1.O=S(=O)([N-]S(=O)(=O)C(F)(F)F)C(F)(F)F,0.91 ± 0.058,0.919 ± 0.058,0.955 ± 0.06,0.975 ± 0.061,1.01 ± 0.06,1.05 ± 0.07
O [water] + CCCCCC[N+]1(C)CCCCC1.O=S(=O)([N-]S(=O)(=O)C(F)(F)F)C(F)(F)F,5.31 ± 0.36,4.46 ± 0.3,3.81 ± 0.26,3.26 ± 0.22,2.8 ± 0.19,2.45 ± 0.17
O [water] + CCCCC[N+]1(C)CCCCC1.O=S(=O)([N-]S(=O)(=O)C(F)(F)F)C(F)(F)F,5.05 ± 0.34,4.19 ± 0.29,3.7 ± 0.25,3.18 ± 0.22,2.78 ± 0.19,2.44 ± 0.17
